Measured values taken from patent publication US20220087970A1, “PREVENTION OF ANESTHETIC-INDUCED NEUROCOGNITIVE DYSFUNCTION” (The Johns Hopkins University, priority 2019, published 2022).

What was measured:
[1] = tested on: ERK; test: Western blot, phosphorylation status of ERK in hippocampal tissues; type: in vivo; conditions: PND7 mice; BAY 60-7550 3 mg/kg 30 min, molsidomine 4 mg/kg 30 min
Method: PND7 mice were exposed to isoflurane (1.5% ISO in 02, 4 hr), control gas (100% O2, 4 hr), PDE inhibitor (BAY 60-7550, 3 mg/kg, 30 min), or NO donor (molsidomine, 4 mg/kg, 30 min), we harvested hippocampal tissues for Western blotting to assess the phosphorylation status of ERK.

[2] = tested on: PSD-95 or PSD-93 and the NMDA receptor or nNOS; conditions: clinically relevant concentrations; Fang et al., 2003; Tao et al., 2015; cited from earlier work
[3] = tested on: primary neuron cultures; test: Primary neuron cultures, long thin spines and filopodia at DIV7; type: cell-based; conditions: for effect on PDZ2WT-induced loss of long thin spines and filopodia at DIV7: PDZ2WT peptide 1 μM 4 hrs; for effect on PDZ2WT-induced loss of long thin spines and filopodia at DIV7 / effect on isoflurane-induced loss of long thin spines and filopodia at DIV7: DETA NONOate 150 μM, ODQ 100 μM added to NO donor; for effect on isoflurane-induced loss of long thin spines and filopodia at DIV7: isoflurane 1.5% 4 hrs
Method: Primary neuron cultures were exposed to control gas (25% O2, 5% CO2, bal N2), isoflurane (1.5% ISO in 25% O2, 5% CO2, bal N2), DETA NONOate NO donor 150 μM and sGC inhibitor ODQ 100 μM for 4 hrs. […] MAP2 dendrite marker, green. Drebrin A/E immature spine/filopodia marker, red. Scale bar is 5 μm. FIG. 20B, Density of long thin spines and filopodia at DIV7 among exposed groups analyzed using Imaris 93.1;
MAP2, green. Drebrin, red. Scale bar is 5 μm. FIG. 21B, show the density of long thin spines and filopodia among exposed groups;
Neuron cultures were exposed to control gas (25% O2, 5% CO2, balance N2) or sevoflurane (2.1% ISO in 25% O2, 5% CO2, balanced N2) for 4 hrs. […] Scale bar is 5 μm. FIG. 22B, Density of long thin spines and filopodia among exposed groups; and […]

[4] = tested on: neuron cultures; test: Neuron cultures, synapses (PSD95/Synaptophysin puncta) at DIV14; type: cell-based; conditions: DETA 150 μM and ODQ 100 μM for 4 hrs right before exposure to gases at DIV7
Method: Neuron cultures were transfected with GFP-AAV virus at DIV-4 and were exposed to NO donor (DETA) 150 μM and sGC inhibitor (ODQ) 100 μM for 4 hrs right before exposure to gases at DIV7. Cells were returned back to incubator with half media change every second day. At DIV14, cells were fixed and stained with PSD95 and Synaptophysin. […] Scale bar is 5 μm. FIG. 23B: Synapse were analyzed using puncta analyzer plugin as shown in methods section.

[5] = tested on: hippocampal dendritic mushroom spines (dentate gyrus); type: in vivo, mice; conditions: molsidomine 4 mg/kg ip after PND7 exposure, PND49
Method: PND7 control and experimental mice were placed in a clear plastic cone and body temperature maintained by a heating blanket set to 35° C. Heart rate (HR) and oxyhemoglobin saturation (SpO2) were continuously monitored using pulse-oximetry (PhysioSuite, Kent Scientific). Arterial blood was collected by terminal cardiac puncture of the left ventricle from sentinels and pH (pHa) determined using a blood gas machine (ABL800 FLEX Series Radiometer). […] Naïve control animals were left with the dams. Control ‘CON’ animals were exposed to oxygen only. Anesthesia was initiated with 2.4% isoflurane in oxygen for 2 min and tapered down to 1.5% within 15 min. Exposure to 1.5% isoflurane was continued for 3 hours and 45 min (total 4 hours ISO). At the end of the exposure animals were maintained in oxygen on the heating blanket for 10 min then returned to dams. […] Tao and Johns, 2008. Purification of fusion peptides was performed by Creative BioMart (Shirley, N.Y.) and verified by Coomassie blue staining and Western blot analysis and then stored in 10% glycerol/phosphate-buffered saline at −80° C. until use. The Tat-PSD-95 PDZ2WT and MUT plasmids used to generate proteins containing an amino-terminal, in-frame, 11-amino-acid, minimal transduction domain (residues 47-57 of human immunodeficiency virus Tat protein) termed Tat. […] Fang et al., 2003. […]

[6] = tested on: C57BL6 mice; test: Novel object recognition at PND21; type: in vivo; conditions: molsidomine 4 mg/kg ip after PND7 exposure, PND21
Method: 1.3.2 Anesthesia, Peptide, and Molsidomine Injections. PND7 control and experimental mice were placed in a clear plastic cone and body temperature maintained by a heating blanket set to 35° C. Vital signs and physiological monitoring were assessed using PhysioSuite® (Kent Scientific Corporation, Torrington, Conn., USA) and blood gasses were collected arterially. […] Note that lower concentrations of 02 can be used, e.g., between 20% to 100% 02, including 20%, 25%, 30%, 35%, 40%, 45%, 50%, 55%, 60%, 65%, 70%, 75%, 80%, 85%, 90%, 95%, 96%, 97%, 98%, 99%, and 100% 02. Naïve animals were left with the dams. Anesthesia was initiated with 2.4% ISO in 100% oxygen for 2 min and tapered down to 1.5% within 15 min. Exposure to 1.5% ISO was continued for 3 hours and 45 min (total 4 hours ISO). Control ‘CON’ animals were exposed to 100% oxygen only. At the end of the exposure animals were maintained in oxygen on the heating blanket for 10 min then returned to dams. […] Tao and Johns, 2008. A single injection of peptide was given ip. Separate peptide cohorts were injected in parallel with mice undergoing exposure to anesthesia or O2 control. Purification of fusion peptides was performed by Creative BioMart (Shirley, N.Y.) and verified by Coomassie blue staining and Western blot analysis and then stored in 10% glycerol/phosphate buffered saline at −80° C. until use. The Tat-PSD-95 PDZ2WT and MUT plasmids used to generate proteins containing an amino-terminal, in-frame, 11-amino-acid, minimal transduction domain (residues 47-57 of human immunodeficiency virus Tat protein) termed Tat. […] Fang et al., 2003. The NO donor molsidomine [(N-[ethoxycarbonyl]-3-[4-morpholinosydnomine] (Sigma, St. Louis, Mo.) was injected at 4 mg/kg into mice ip in 100 μL sterile saline as previously described. The NO donor was added immediately following cessation of anesthesia or control (O2) exposure, i.e., the NO donor was injected 4 hours after onset of anesthesia. One of ordinary skill in the art upon review of the present disclosure would appreciate that the NO donor could be administered at other times during anesthesia, including at the onset of anesthesia. Control animals were injected ip with the vehicle (saline).
1.3.7 Novel Object Recognition. The novel object recognition (NOR) procedure was based upon the original Ennaceur et al., 1988, procedure and was used to assess nonspatial hippocampal memory. Clark et al., 2000; Baker and Kim, 2002; Reger et al., 2009. It consisted of a training ‘familiarization’ phase followed by a testing phase. During training, mice were allowed to freely explore within an opaque box (40 cm W×40 cm L×34 cm H) containing two identical objects for 10 min. Data were recorded with a video camera and time spent with each object was recorded using ANYmaze software (Stoelting). Object investigation time was determined by the amount of time the mouse spent in the zone immediately surrounding the object. […] After 2 h, object recognition was tested, using the same procedure as in training except that a novel object was substituted for one of the familiar training objects and mice were allowed to explore for 5 min. Mice inherently prefer to explore novel objects; thus, a preference for the novel object indicates intact memory for the familiar object.

[7] = tested on: hippocampal CA1 LTP (Schaffer collateral pathway); test: Extracellular field-potential recordings, LTP in hippocampal slices at PND21; type: in vivo, mice; conditions: molsidomine 4 mg/kg ip after PND7 exposure
Method: 1.3.2 Anesthesia, Peptide, and Molsidomine Injections. PND7 control and experimental mice were placed in a clear plastic cone and body temperature maintained by a heating blanket set to 35° C. Vital signs and physiological monitoring were assessed using PhysioSuite® (Kent Scientific Corporation, Torrington, Conn., USA) and blood gasses were collected arterially. […] Note that lower concentrations of 02 can be used, e.g., between 20% to 100% 02, including 20%, 25%, 30%, 35%, 40%, 45%, 50%, 55%, 60%, 65%, 70%, 75%, 80%, 85%, 90%, 95%, 96%, 97%, 98%, 99%, and 100% 02. Naïve animals were left with the dams. Anesthesia was initiated with 2.4% ISO in 100% oxygen for 2 min and tapered down to 1.5% within 15 min. Exposure to 1.5% ISO was continued for 3 hours and 45 min (total 4 hours ISO). Control ‘CON’ animals were exposed to 100% oxygen only. At the end of the exposure animals were maintained in oxygen on the heating blanket for 10 min then returned to dams. […] Tao and Johns, 2008. A single injection of peptide was given ip. […]
1.3.6.2. […] Synaptic responses were recorded using a MultiClamp 700B amplifier, and the signal was digitized with Digidita 1440A, analyzed with pClamp10 and stored on a personal computer. […] Measurements of the fEPSP slopes were made during the rising phase (5-50% of the peak) and the values normalized to the mean values recorded in 20-min baseline. […]

Compound	amount of pERK [1]	PDZ domain-mediated protein interactions [2]	effect on PDZ2WT-induced loss of long thin spines and filopodia at DIV7 [3]	effect on isoflurane-induced loss of long thin spines and filopodia at DIV7 [3]	effect on isoflurane-induced loss of synapses at DIV14 [4]	also measured
COc1ccc(Cc2nn3c([C@@H](CCCc4ccccc4)[C@@H](C)O)nc(C)c3c(=O)[nH]2)cc1OC [BAY 60-7550]	significant increases in the amount of pERK	–	–	–	–	–
FC(F)(F)C(Cl)Br (centres unmarked) [halothane, 2-bromo-2-chloro-1,1,1-trifluoroethane]	–	can disrupt PDZ domain-mediated protein-protein interactions in vitro and in vivo	–	–	–	–
O=c1onc2cnc3ccccc3n12 [ODQ]	–	–	blocked the prevention with NO donor	blocked the prevention with NO donor	blocked the prevention with DETA	–
NCCN(CCN)/[N+]([O-])=N/O [DETA NONOate]	–	–	prevented loss of immature spines	prevented loss of immature spines	prevented loss of synapses	–
FCOC(C(F)(F)F)C(F)(F)F [sevoflurane, 1,1,1,3,3,3-hexafluoro-2-(fluoromethoxy)propane]	–	can disrupt PDZ domain-mediated protein-protein interactions in vitro and in vivo	–	–	–	long thin spines and filopodia at DIV7 after exposure ([3]; 4 hrs: isoflurane 1.5%, PDZ2WT peptide 1 μM or sevoflurane 2.1%): loss of filopodia
CCOC(=O)Nc1c[n+](N2CCOCC2)no1 [molsidomine, N-ethoxycarbonyl-3-morpholinosydnonimine]	significant increases in the amount of pERK	–	–	–	–	effect of NO donor on decrease in mushroom spine density caused by isoflurane or PDZ2WT peptide [5]: prevents the decrease in mushroom spine density; effect of NO donor on impairment in recognition memory caused by ISO or PDZ2WT peptide [6]: prevents impairment in LTP and recognition memory; effect of NO donor on impairment in LTP caused by ISO or PDZ2WT peptide [7]: prevents impairment in LTP and recognition memory
